Source: US6914045B2, “Glycopeptide antibiotics” (Wyeth Holdings Corporation, priority 2001, dated 2005)
Values after ≈ are worked out from the molar mass of the structure shown. Where two headings read alike, the source gives them in different places. Numbered stars: 1 amine (or outer) side, 2 acyl side, 3 side chain; on linkers, the order of the positions; unused ones are H or OH. Square brackets hold non-standard residues; d marks the D form. Peptide text beside a SMILES is read from it. X5 = N=C1NCC(C(O)[C@@H](N[*:1])C(=O)[*:2])N1; X4 = N=C1NCC(C(O)[C@H](N[*:1])C(=O)[*:2])N1; Cha = N[C@@H](CC1CCCCC1)C(=O)O; dCha = N[C@H](CC1CCCCC1)C(=O)O

Experiments:
Assay in all cases: in vitro antibacterial evaluation, MIC by broth dilution
Type in all cases: cell-based
Escherichia coli = settings: 18 hours at 35° C.
In short: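 Broth dilution MIC per NCCLS M7-A2 in Mueller-Hinton II medium, inoculum 5×10^5 CFU/mL, antibiotic range 64-0.06 μg/mL. MIC taken as lowest concentration inhibiting growth.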

Streptococcus sp. = settings: broth dilution, 18 hours at 35° C.
In short: (§1)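 MIC = lowest antibiotic concentration preventing visible growth; inoculum 5×10^5 CFU/mL; drug range 64-0.06 μg/mL; Muller-Hinton II […]; NCCLS M7-A2 guidance.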

Enterococcus sp. = settings: broth dilution, 18 hours at 35° C.
In short: as §1

Staphylococcus sp. = settings: broth dilution, 18 hours at 35° C.
In short: as §1

- MIC (Escherichia coli; Escherichia coli (ATCC 25922), read-out: MIC Escherichia coli (ATCC 25922)): 16 µg/mL (≈ 20.2 µM)
- MIC (Escherichia coli; Escherichia coli, read-out: MIC Escherichia coli (GC 4559)): 8 µg/mL (≈ 10.1 µM)
- MIC (Escherichia coli; Escherichia coli, read-out: MIC Escherichia coli (GC 4560)): 16 µg/mL (≈ 20.2 µM)
- MIC (Streptococcus sp.; read-out: MIC Streptococcus agalactiae (GC 4564)): 16 µg/mL (≈ 20.2 µM)
- MIC (Streptococcus sp.; read-out: MIC Streptococcus pneumoniae (ATCC 6301)): 8 µg/mL (≈ 10.1 µM)
- MIC (Streptococcus sp.; read-out: MIC Streptococcus pneumoniae (GC 1894)): 8 µg/mL (≈ 10.1 µM)
- MIC (Streptococcus sp.; read-out: MIC Streptococcus pneumoniae (GC 4565)): 16 µg/mL (≈ 20.2 µM)
- MIC (Streptococcus sp.; read-out: MIC Streptococcus pyogenes (GC 4563)): 8 µg/mL (≈ 10.1 µM)
- MIC Streptococcus pneumoniae (ATCC 6301) (Streptococcus sp.; strain ATCC 6301): 8 µg/mL (≈ 10.1 µM)
- MIC Streptococcus pneumoniae (GC 1894) (Streptococcus sp.; strain GC 1894): 8 µg/mL (≈ 10.1 µM)
- MIC Streptococcus pyogenes (GC 4563) (Streptococcus sp.; strain GC 4563): 8 µg/mL (≈ 10.1 µM)
- MIC Streptococcus agalactiae (GC 4564) (Streptococcus sp.; strain GC 4564): 16 µg/mL (≈ 20.2 µM)
- MIC Streptococcus pneumoniae (GC 4565) (Streptococcus sp.; strain GC 4565): 16 µg/mL (≈ 20.2 µM)
- MIC Enterococcus avium (GC 4558) (Enterococcus sp.; Enterococcus avium (GC 4558)): 32 µg/mL (≈ 40.5 µM)
- MIC Enterococcus faecalis (ATCC 29212) (Enterococcus sp.; Enterococcus faecalis (ATCC 29212)): 64 µg/mL (≈ 80.9 µM)
- MIC Enterococcus faecalis (GC 4552) (Enterococcus sp.; Enterococcus faecalis (GC 4552)): 64 µg/mL (≈ 80.9 µM)
- MIC Enterococcus faecalis (GC 4553) (Enterococcus sp.; Enterococcus faecalis (GC 4553)): 32 µg/mL (≈ 40.5 µM)
- MIC Enterococcus faecalis (GC 4554) (Enterococcus sp.; Enterococcus faecalis (GC 4554)): 64 µg/mL (≈ 80.9 µM)
- MIC Enterococcus faecalis (GC 6189) (Enterococcus sp.; Enterococcus faecalis (GC 6189)): 64 µg/mL (≈ 80.9 µM)
- MIC Enterococcus faecium (GC 2243) (Enterococcus sp.; Enterococcus faecium (GC 2243)): 32 µg/mL (≈ 40.5 µM)
- MIC Enterococcus faecium (GC 4556) (Enterococcus sp.; Enterococcus faecium (GC 4556)): 64 µg/mL (≈ 80.9 µM)
- MIC Enterococcus faecium (GC 4557) (Enterococcus sp.; Enterococcus faecium (GC 4557)): 8 µg/mL (≈ 10.1 µM)
- MIC (Enterococcus sp.; read-out: MIC Enterococcus avium (GC 4558)): 32 µg/mL (≈ 40.5 µM)
- MIC (Enterococcus sp.; read-out: MIC Enterococcus faecalis (ATCC 29212)): 64 µg/mL (≈ 80.9 µM)
- MIC (Enterococcus sp.; read-out: MIC Enterococcus faecalis (GC 2242)): 64 µg/mL (≈ 80.9 µM)
- MIC (Enterococcus sp.; read-out: MIC Enterococcus faecalis (GC 2691)): 64 µg/mL (≈ 80.9 µM)
- MIC (Enterococcus sp.; read-out: MIC Enterococcus faecalis (GC 3059)): 64 µg/mL (≈ 80.9 µM)
- MIC (Enterococcus sp.; read-out: MIC Enterococcus faecalis (GC 4552)): 64 µg/mL (≈ 80.9 µM)
- MIC (Enterococcus sp.; read-out: MIC Enterococcus faecalis (GC 4553)): 32 µg/mL (≈ 40.5 µM)
- MIC (Enterococcus sp.; read-out: MIC Enterococcus faecalis (GC 4554)): 64 µg/mL (≈ 80.9 µM)
- MIC (Enterococcus sp.; read-out: MIC Enterococcus faecalis (GC 6189)): 64 µg/mL (≈ 80.9 µM)
- MIC (Enterococcus sp.; read-out: MIC Enterococcus faecium (GC 2243)): 32 µg/mL (≈ 40.5 µM)
- MIC (Enterococcus sp.; read-out: MIC Enterococcus faecium (GC 4556)): 64 µg/mL (≈ 80.9 µM)
- MIC (Enterococcus sp.; read-out: MIC Enterococcus faecium (GC 4557)): 8 µg/mL (≈ 10.1 µM)
- MIC Enterococcus faecalis (GC 2242) (Enterococcus sp.; strain GC 2242): 64 µg/mL (≈ 80.9 µM)
- MIC Enterococcus faecalis (GC 2691) (Enterococcus sp.; strain GC 2691): 64 µg/mL (≈ 80.9 µM)
- MIC Enterococcus faecalis (GC 3059) (Enterococcus sp.; strain GC 3059): 64 µg/mL (≈ 80.9 µM)
- MIC (Staphylococcus sp.; Staphylococcus, strain GC 4543, read-out: MIC Staphylococcus aureus-SMITH (GC 4543)): 4 µg/mL (≈ 5.06 µM)
- MIC (Staphylococcus sp.; Staphylococcus, strain GC 4547, read-out: MIC Coagulase Negative Staphylococcus (GC 4547)): 4 µg/mL (≈ 5.06 µM)
- MIC (Staphylococcus sp.; Staphylococcus, strain GC 4548, read-out: MIC Coagulase Negative Staphylococcus (GC 4548)): 4 µg/mL (≈ 5.06 µM)
- MIC (Staphylococcus sp.; Staphylococcus, strain GC 4549, read-out: MIC Coagulase Negative Staphylococcus (GC 4549)): 4 µg/mL (≈ 5.06 µM)
- MIC (Staphylococcus sp.; Staphylococcus, strain GC 4551, read-out: MIC Coagulase Negative Staphylococcus (GC 4551)): 8 µg/mL (≈ 10.1 µM)
- MIC (Staphylococcus sp.; strain ATCC 29213, read-out: MIC Staphylococcus aureus (ATCC 29213)): 16 µg/mL (≈ 20.2 µM)
- MIC (Staphylococcus sp.; strain GC 1131, read-out: MIC Staphylococcus aureus (GC 1131)): 8 µg/mL (≈ 10.1 µM)
- MIC (Staphylococcus sp.; strain GC 3051, read-out: MIC Staphylococcus aureus (GC 3051)): 16 µg/mL (≈ 20.2 µM)
- MIC (Staphylococcus sp.; strain GC 3053, read-out: MIC Staphylococcus aureus (GC 3053)): 32 µg/mL (≈ 40.5 µM)
- MIC (Staphylococcus sp.; strain GC 4541, read-out: MIC Staphylococcus aureus (GC 4541)): 16 µg/mL (≈ 20.2 µM)
- MIC (Staphylococcus sp.; strain GC 4542, read-out: MIC Staphylococcus aureus (GC 4542)): 16 µg/mL (≈ 20.2 µM)
- MIC (Staphylococcus sp.; strain GC 4544, read-out: MIC Staphylococcus aureus (GC 4544)): 16 µg/mL (≈ 20.2 µM)
- MIC (Staphylococcus sp.; strain GC 4545, read-out: MIC Staphylococcus aureus (GC 4545)): 8 µg/mL (≈ 10.1 µM)
SMILES: N=C1NCC(C(O)[C@@H]2NC(=O)[C@@H](CC3CCCCC3)NC(=O)[C@H](CC3CCCCC3)NC(=O)CNC(=O)[C@H](CO)NC(=O)[C@@H](C(O)C3CNC(=N)N3)NC2=O)N1 (stereo partly drawn) [Example 58, Cyclo[3-cyclohexylalanyl-3-cyclohexylalanyl-3-(2-iminoimidazolidin-4-yl)seryl-3-(2-iminoimidazolidin-4-yl)-serylserylglycyl]] (cyclo([Cha][dCha][X4][X5]SG))
- MIC (Staphylococcus sp.; strain GC 4546, read-out: MIC Staphylococcus haemolyticus (GC 4546)): 4 µg/mL (≈ 5.06 µM)
